Results as given in patent publication US8541365B2, “Dendrimeric compounds comprising amino acids, hyperbranched core compound, process for preparation of dendrimeric compounds comprising amino acids and hyperbranched core compound, and use thereof” (Instytut Chemii Organicznej, Polska Akademia Nauk, priority 2008, dated 2013).
Where two headings read alike, the source gives them in different places.

How the values were obtained:
S. aureus ATCC 25923 = type: cell-based, Staphylococus aureus subsp. aureus
Protocol: (§1) Titration plates with a, b, d strains were incubated for 18 h at 35° C. under aerobic conditions, and the c strain was incubated for 18 h at 33° C. under aerobic conditions.
b) Staphylococus aureus subsp. aureus ATCC 25923,

E. coli ATTC 25922 = type: cell-based, Escherichia coli
Protocol: as §1
d) Escherichia coli ATCC 25922

S. aureus ATTC 43300 = type: cell-based, Staphylococus aureus subsp. aureus
Protocol: as §1
c) Staphylococus aureus subsp. aureus ATCC 43300,

P. aeruginosa ATTC 27853 = type: cell-based, Pseudomonas aeruginosa
Protocol: as §1
a) Pseudomonas aeruginosa ATCC 27853,

[1] = test system: human melanoma cells (MEW 155); conditions: MEW 155 cells, 3 days culture
Protocol: Human melanoma cells (MEW 155) received from Institute of Oncology were inoculated on Petri dishes (Ø3 cm, Nunc) to the number of about 75 000, suspended in 3 ml of Eagle medium+10% FBS+antibiotics. Immediately after the inoculation, solutions of tested substances were added to the cells (a substance +20 ml PBS) at 0.5 ml per dish. After culturing for 3 days, numbers of cells (all, dead and alive) at each dish were determined with NucleoCounter apparatus (Chemometec).

[2] = S. aureus ATCC 25923, microdilution in CAMHB, 18 h at 35° C.
[3] = E. coli ATTC 25922, microdilution in CAMHB, 18 h at 35° C.
[4] = S. aureus ATTC 43300, microdilution in CAMHB, 18 h at 33° C.
[5] = P. aeruginosa ATTC 27853, microdilution in CAMHB, 18 h at 35° C.

Structure (SMILES)	Minimal inhibitory concentration (MIC) (S. aureus ATCC 25923; [2]) [μM/L]	Minimal inhibitory concentration (MIC) (E. coli ATTC 25922; [3]) [μM/L]	Minimal inhibitory concentration (MIC) (S. aureus ATTC 43300; [4]) [μM/L]	Minimal inhibitory concentration (MIC) (P. aeruginosa ATTC 27853; [5]) [μM/L]	other results
N[C@@H](CCCCNC(=O)OCc1ccccc1Cl)C(=O)NCCNC(=O)CCN(CCC(=O)NCCNC(=O)[C@@H](N)CCCCNC(=O)OCc1ccccc1Cl)CC[C@@H](C(=O)NCCc1c[nH]c2ccccc12)N(CCC(=O)NCCNC(=O)[C@@H](N)CCCCNC(=O)OCc1ccccc1Cl)CCC(=O)NCCNC(=O)[C@@H](N)CCCCNC(=O)OCc1ccccc1Cl [Compound 95]	1.88	32	32	51	
N[C@@H](CCCCNC(=O)OCc1ccccc1Cl)C(=O)NCCNC(=O)CCN(CCC(=O)NCCNC(=O)[C@@H](N)CCCCNC(=O)OCc1ccccc1Cl)C[C@@H](C(=O)NCCc1c[nH]c2ccccc12)N(CCC(=O)NCCNC(=O)[C@@H](N)CCCCNC(=O)OCc1ccccc1Cl)CCC(=O)NCCNC(=O)[C@@H](N)CCCCNC(=O)OCc1ccccc1Cl [Compound 99]	0.6	7.0	3.32	52	
NCCCC[C@H](NC(=O)OCc1ccccc1Br)C(=O)NCCNC(=O)CCN(CCCC[C@@H](C(=O)NCCc1c[nH]c2ccccc12)N(CCC(=O)NCCNC(=O)[C@H](CCCCN)NC(=O)OCc1ccccc1Br)CCC(=O)NCCNC(=O)[C@H](CCCCN)NC(=O)OCc1ccccc1Br)CCC(=O)NCCNC(=O)[C@H](CCCCN)NC(=O)OCc1ccccc1Br [Compound 104]	3.43	30	30	64	Live cells (%) ([1]; concentration 21.4 μMol dm^−3): 73.6%
N[C@@H](CCCCNC(=O)OCc1ccccc1Cl)C(=O)NCCNC(=O)CCN(CCC[C@@H](C(=O)NCCc1c[nH]c2ccccc12)N(CCC(=O)NCCNC(=O)[C@@H](N)CCCCNC(=O)OCc1ccccc1Cl)CCC(=O)NCCNC(=O)[C@@H](N)CCCCNC(=O)OCc1ccccc1Cl)CCC(=O)NCCNC(=O)[C@@H](N)CCCCNC(=O)OCc1ccccc1Cl [Compound 97]	0.93	7.9	20.4	60	
N[C@@H](CCCCNC(=O)OCc1ccccc1Cl)C(=O)NCCNC(=O)CCN(CCCC(C(=O)Nc1cccnc1)N(CCC(=O)NCCNC(=O)[C@@H](N)CCCCNC(=O)OCc1ccccc1Cl)CCC(=O)NCCNC(=O)[C@@H](N)CCCCNC(=O)OCc1ccccc1Cl)CCC(=O)NCCNC(=O)[C@@H](N)CCCCNC(=O)OCc1ccccc1Cl (stereo partly drawn) [Compound 92]					Live cells (%) ([1]; concentration 7.14 μMol dm^−3): 97.7%
NCCCC[C@H](NC(=O)OCc1ccccc1Cl)C(=O)NCCNC(=O)CCN(CCCC(C(=O)Nc1cccnc1)N(CCC(=O)NCCNC(=O)[C@H](CCCCN)NC(=O)OCc1ccccc1Cl)CCC(=O)NCCNC(=O)[C@H](CCCCN)NC(=O)OCc1ccccc1Cl)CCC(=O)NCCNC(=O)[C@H](CCCCN)NC(=O)OCc1ccccc1Cl (stereo partly drawn) [Compound 93]					Live cells (%) ([1]; concentration 13.65 μMol dm^−3): 95.8%
N[C@@H](CCCCNC(=O)OCc1ccccc1Cl)C(=O)NCCNC(=O)CCN(CCCC[C@@H](C(=O)NCCc1c[nH]c2ccccc12)N(CCC(=O)NCCNC(=O)[C@@H](N)CCCCNC(=O)OCc1ccccc1Cl)CCC(=O)NCCNC(=O)[C@@H](N)CCCCNC(=O)OCc1ccccc1Cl)CCC(=O)NCCNC(=O)[C@@H](N)CCCCNC(=O)OCc1ccccc1Cl [Compound 101]	0.93	12.0	10.0	51	
NCCCC[C@H](NC(=O)OCc1ccccc1Cl)C(=O)NCCNC(=O)CCN(CCC(=O)NCCNC(=O)[C@H](CCCCN)NC(=O)OCc1ccccc1Cl)CC[C@@H](C(=O)NCCc1c[nH]c2ccccc12)N(CCC(=O)NCCNC(=O)[C@H](CCCCN)NC(=O)OCc1ccccc1Cl)CCC(=O)NCCNC(=O)[C@H](CCCCN)NC(=O)OCc1ccccc1Cl [Compound 94]	0.94	12.2	10.12	70	Live cells (%) ([1]; concentration 12.13 μMol dm^−3): 88.4%
NCCCC[C@H](NC(=O)OCc1ccccc1Cl)C(=O)NCCNC(=O)CCN(CCC(=O)NCCNC(=O)[C@H](CCCCN)NC(=O)OCc1ccccc1Cl)C[C@@H](C(=O)NCCc1c[nH]c2ccccc12)N(CCC(=O)NCCNC(=O)[C@H](CCCCN)NC(=O)OCc1ccccc1Cl)CCC(=O)NCCNC(=O)[C@H](CCCCN)NC(=O)OCc1ccccc1Cl [Compound 98]	0.95	12.3	8.06	52	Live cells (%) ([1]; concentration 4.3 μMol dm^−3): 97.7%
NCCCC[C@H](NC(=O)OCc1ccccc1Cl)C(=O)NCCNC(=O)CCN(CCC[C@@H](C(=O)NCCc1c[nH]cn1)N(CCC(=O)NCCNC(=O)[C@H](CCCCN)NC(=O)OCc1ccccc1Cl)CCC(=O)NCCNC(=O)[C@H](CCCCN)NC(=O)OCc1ccccc1Cl)CCC(=O)NCCNC(=O)[C@H](CCCCN)NC(=O)OCc1ccccc1Cl [Compound 107]					Live cells (%) ([1]; concentration 47.1 μMol dm^−3): 91.1%
N[C@@H](CCCCNC(=O)OCc1ccccc1Cl)C(=O)NCCNC(=O)CCN(CCC[C@@H](C(=O)NCCc1c[nH]cn1)N(CCC(=O)NCCNC(=O)[C@@H](N)CCCCNC(=O)OCc1ccccc1Cl)CCC(=O)NCCNC(=O)[C@@H](N)CCCCNC(=O)OCc1ccccc1Cl)CCC(=O)NCCNC(=O)[C@@H](N)CCCCNC(=O)OCc1ccccc1Cl [Compound 108]					Live cells (%) ([1]; concentration 42.1 μMol dm^−3): 94.9%
NCCC[C@H](NC(=O)OCc1ccccc1Cl)C(=O)NCCNC(=O)CCN(CCCC[C@@H](C(=O)NCCc1c[nH]c2ccccc12)N(CCC(=O)NCCNC(=O)[C@H](CCCN)NC(=O)OCc1ccccc1Cl)CCC(=O)NCCNC(=O)[C@H](CCCN)NC(=O)OCc1ccccc1Cl)CCC(=O)NCCNC(=O)[C@H](CCCN)NC(=O)OCc1ccccc1Cl [Compound 106]	3.82	16.7	25	71	Live cells (%) ([1]; concentration 10.0 μMol dm^−3): 87.7%
NCCCC[C@H](NC(=O)OCc1ccccc1Cl)C(=O)NCCNC(=O)CCN(CCCC[C@@H](C(=O)NCCc1c[nH]c2ccccc12)N(CCC(=O)NCCNC(=O)[C@H](CCCCN)NC(=O)OCc1ccccc1Cl)CCC(=O)NCCNC(=O)[C@H](CCCCN)NC(=O)OCc1ccccc1Cl)CCC(=O)NCCNC(=O)[C@H](CCCCN)NC(=O)OCc1ccccc1Cl [Compound 100]	0.93	3.71	5.81	41	Live cells (%) ([1]; concentration 25.7 μMol dm^−3): 0%
NCCCC[C@H](NC(=O)OCc1ccccc1Cl)C(=O)NCCNC(=O)CCN(CCC[C@@H](C(=O)NCCc1c[nH]c2ccccc12)N(CCC(=O)NCCNC(=O)[C@H](CCCCN)NC(=O)OCc1ccccc1Cl)CCC(=O)NCCNC(=O)[C@H](CCCCN)NC(=O)OCc1ccccc1Cl)CCC(=O)NCCNC(=O)[C@H](CCCCN)NC(=O)OCc1ccccc1Cl [Compound 96]	1.87	12.1	12.1	51	Live cells (%) ([1]; concentration 33.6 μMol dm^−3): 11.6%
NCCCC[C@H](NC(=O)OCc1ccccc1)C(=O)NCCNC(=O)CCN(CCCC[C@@H](C(=O)NCCc1c[nH]c2ccccc12)N(CCC(=O)NCCNC(=O)[C@H](CCCCN)NC(=O)OCc1ccccc1)CCC(=O)NCCNC(=O)[C@H](CCCCN)NC(=O)OCc1ccccc1)CCC(=O)NCCNC(=O)[C@H](CCCCN)NC(=O)OCc1ccccc1 [Compound 102]					Minimal inhibitory concentration (MIC) (S. aureus ATCC 25923; ATCC 25923, 18 h): 17.3 μM/L; Minimal inhibitory concentration (MIC) (E. coli ATTC 25922; ATTC 25922, 18 h): 149 μM/L; Minimal inhibitory concentration (MIC) (S. aureus ATTC 43300; ATTC 43300, 18 h): 149 μM/L; Live cells (%) ([1]; concentration 13.6 μMol dm^−3): 98.5%; Minimal inhibitory concentration (MIC) (P. aeruginosa ATTC 27853; ATTC 27853, 18 h): 149 μM/L
N[C@@H](CCCCNC(=O)OCc1ccccc1)C(=O)NCCNC(=O)CCN(CCCC[C@@H](C(=O)NCCc1c[nH]c2ccccc12)N(CCC(=O)NCCNC(=O)[C@@H](N)CCCCNC(=O)OCc1ccccc1)CCC(=O)NCCNC(=O)[C@@H](N)CCCCNC(=O)OCc1ccccc1)CCC(=O)NCCNC(=O)[C@@H](N)CCCCNC(=O)OCc1ccccc1 [Compound 103]	12.9	111	74	149	Live cells (%) ([1]; concentration 15.0 μMol dm^−3): 96.5%
